# Laboratory results: US20220265694A1, “COMPOSITIONS AND METHODS FOR TREATING AN INFECTION” (CMPD LICENSING, LLC, priority 2016, published 2022)
# Read-outs that look alike come from different tables or passages of the source.
# How the values were obtained:
# [1] = system: Bacteroides fragilis; assay: Expected efficacy of antibiotic agents; conditions: expected efficacy against Bacteroides fragilis; Gram: anaer
# [2] = system: Clostridium difficile; assay: Expected efficacy of antibiotic agents; conditions: expected efficacy against Clostridium difficile; Gram: anaer
# [3] = system: Clostridium perfringens
# [4] = system: Chlamydia pneumoniae; assay: Expected efficacy of antibiotic agents; conditions: expected efficacy against Chlamydia pneumoniae; Gram: n/a
# [5] = system: Chlamydia psittaci
# [6] = system: Chlamydia trachomatis; assay: Expected efficacy of antibiotic agents; conditions: expected efficacy against Chlamydia trachomatis; Gram: n/a
# [7] = system: Mycoplasma pneumoniae; assay: Expected efficacy of antibiotic agents; conditions: expected efficacy against Mycoplasma pneumoniae; Gram: n/a
# [8] = system: Acinetobacter baumannii; assay: Expected efficacy of antibiotic agents; conditions: expected efficacy against Acinetobacter baumannii; Gram: neg
# [9] = system: Bordetella pertussis; assay: Expected efficacy of antibiotic agents; conditions: expected efficacy against Bordetella pertussis; Gram: neg
# [10] = system: Campylobacter jejuni; assay: Expected efficacy of antibiotic agents; conditions: expected efficacy against Campylobacter jejuni; Gram: neg
# [11] = system: Citrobacter diversus; assay: Expected efficacy of antibiotic agents; conditions: expected efficacy against Citrobacter diversus; Gram: neg
# [12] = system: Citrobacter freundii; assay: Expected efficacy of antibiotic agents; conditions: expected efficacy against Citrobacter freundii; Gram: neg
# [13] = system: Enterobacter aerogenes; assay: Expected efficacy of antibiotic agents; conditions: expected efficacy against Enterobacter aerogenes; Gram: neg
# [14] = system: Enterobacter sakazakii; assay: Expected efficacy of antibiotic agents; conditions: expected efficacy against Enterobacter sakazakii; Gram: neg
# [15] = system: Francisella tularensis
# [16] = system: Haemophilus ducreyi; assay: Expected efficacy of antibiotic agents; conditions: expected efficacy against Haemophilus ducreyi; Gram: neg
# [17] = system: Haemophilus influenzae; assay: Expected efficacy of antibiotic agents; conditions: expected efficacy against Haemophilus influenzae; Gram: neg
# [18] = system: Haemophilus parainfluenzae; assay: Expected efficacy of antibiotic agents; conditions: expected efficacy against Haemophilus parainfluenzae; Gram: neg
# [19] = system: Klebsiella (Calymmatobacterium); assay: Expected efficacy of antibiotic agents; conditions: expected efficacy against Klebsiella (Calymmatobacterium); Gram: neg
# [20] = system: Klebsiella oxytoca; assay: Expected efficacy of antibiotic agents; conditions: expected efficacy against Klebsiella oxytoca; Gram: neg
# [21] = system: Klebsiella pneumoniae; assay: Expected efficacy of antibiotic agents; conditions: expected efficacy against Klebsiella pneumoniae; Gram: neg
# [22] = system: Moraxella catarrhalis; assay: Expected efficacy of antibiotic agents; conditions: expected efficacy against Moraxella catarrhalis; Gram: neg
# [23] = system: Morganella morganii; assay: Expected efficacy of antibiotic agents; conditions: expected efficacy against Morganella morganii; Gram: neg
# [24] = system: Proteus mirabilis; assay: Expected efficacy of antibiotic agents; conditions: expected efficacy against Proteus mirabilis; Gram: neg
# [25] = system: Proteus vulgaris; assay: Expected efficacy of antibiotic agents; conditions: expected efficacy against Proteus vulgaris; Gram: neg
# [26] = system: Providencia stuartii; assay: Expected efficacy of antibiotic agents; conditions: expected efficacy against Providencia stuartii; Gram: neg
# [27] = system: Pseudomonas aeruginosa; assay: Expected efficacy of antibiotic agents; conditions: expected efficacy against Pseudomonas aeruginosa; Gram: neg
# [28] = system: Rickettsiae
# [29] = system: Salmonella typhi; assay: Expected efficacy of antibiotic agents; conditions: expected efficacy against Salmonella typhi; Gram: neg
# [30] = system: Serratia marcescens; assay: Expected efficacy of antibiotic agents; conditions: expected efficacy against Serratia marcescens; Gram: neg
# [31] = system: Shigella boydii; assay: Expected efficacy of antibiotic agents; conditions: expected efficacy against Shigella boydii; Gram: neg
# [32] = system: Shigella dysenteriae; assay: Expected efficacy of antibiotic agents; conditions: expected efficacy against Shigella dysenteriae; Gram: neg
# [33] = system: Shigella sonnei; assay: Expected efficacy of antibiotic agents; conditions: expected efficacy against Shigella sonnei; Gram: neg
# [34] = system: Vibrio cholerae; assay: Expected efficacy of antibiotic agents; conditions: expected efficacy against Vibrio cholerae; Gram: neg
# [35] = system: Yersinia pestis
# [36] = system: Corynebacterium jeikeium; assay: Expected efficacy of antibiotic agents; conditions: expected efficacy against Corynebacterium jeikeium; Gram: pos
# [37] = system: Enterococcus faecalis; assay: Expected efficacy of antibiotic agents; conditions: expected efficacy against Enterococcus faecalis; Gram: pos
# [38] = system: Enterococcus faecium; assay: Expected efficacy of antibiotic agents; conditions: expected efficacy against Enterococcus faecium; Gram: pos
# [39] = system: Peptostreptococcus; assay: Expected efficacy of antibiotic agents; conditions: expected efficacy against Peptostreptococcus; Gram: pos
# [40] = system: Staphylococcus aureus (MSSA); assay: Expected efficacy of antibiotic agents; conditions: expected efficacy against Staphylococcus aureus (MSSA); Gram: pos
# [41] = system: Streptococcus agalactiae; assay: Expected efficacy of antibiotic agents; conditions: expected efficacy against Streptococcus agalactiae; Gram: pos
# [42] = system: Streptococcus pneumoniae; assay: Expected efficacy of antibiotic agents; conditions: expected efficacy against Streptococcus pneumoniae; Gram: pos
# [43] = system: Streptococcus pyogenes; assay: Expected efficacy of antibiotic agents; conditions: expected efficacy against Streptococcus pyogenes; Gram: pos
compound,measurement,setting,value
CO/N=C(\C(=O)N[C@@H]1C(=O)N2C(C(=O)O)=C(CSc3nc(=O)c(=O)[nH]n3C)CS[C@H]12)c1csc(N)n1 [Ceftriaxone],Efficacy,[1],yes
same,Efficacy,[2],no
same,Efficacy,"[3]; expected efficacy against Clostridium perfringens, Gram: anaer",yes
same,Efficacy,[4],no
same,Efficacy,"[5]; expected efficacy against Chlamydia psittaci, Gram: n/a",no
same,Efficacy,[6],no
same,Efficacy,[7],no
same,Efficacy,[8],no
same,Efficacy,[9],no
same,Efficacy,[10],no
same,Efficacy,[11],yes
same,Efficacy,[12],yes
same,Efficacy,[13],yes
same,Efficacy,[14],yes
same,Efficacy,"[15]; expected efficacy against Francisella tularensis, Gram: neg",no
same,Efficacy,[16],yes
same,Efficacy,[17],yes
same,Efficacy,[18],yes
same,Efficacy,[19],yes
same,Efficacy,[20],yes
same,Efficacy,[21],yes
same,Efficacy,[22],yes
same,Efficacy,[23],yes
same,Efficacy,[24],yes
same,Efficacy,[25],yes
same,Efficacy,[26],yes
same,Efficacy,[27],no
same,Efficacy,"[28]; expected efficacy against Rickettsiae, Gram: neg",no
same,Efficacy,[29],yes
same,Efficacy,[30],yes
same,Efficacy,[31],yes
same,Efficacy,[32],yes
same,Efficacy,[33],yes
same,Efficacy,[34],no
same,Efficacy,"[35]; expected efficacy against Yersinia pestis, Gram: neg",no
same,Efficacy,[36],no
same,Efficacy,[37],no
same,Efficacy,[38],no
same,Efficacy,[39],yes
same,Efficacy,[40],yes
same,Efficacy,[41],yes
same,Efficacy,[42],yes
same,Efficacy,[43],yes
CN[C@H](CC(C)C)C(=O)N[C@H]1C(=O)N[C@@H](CC(N)=O)C(=O)N[C@H]2C(=O)N[C@H]3C(=O)N[C@H](C(=O)N[C@H](C(=O)O)c4cc(O)cc(O)c4-c4cc3ccc4O)[C@H](O)c3ccc(c(Cl)c3)Oc3cc2cc(c3O[C@@H]2O[C@H](CO)[C@@H](O)[C@H](O)[C@H]2O[C@H]2C[C@](C)(N)[C@H](O)[C@H](C)O2)Oc2ccc(cc2Cl)[C@H]1O [Vancomycin],Efficacy,[1],no
same,Efficacy,[2],yes
same,Efficacy,[3],no
same,Efficacy,[4],no
same,Efficacy,[5],no
same,Efficacy,[6],no
same,Efficacy,[7],no
same,Efficacy,[8],no
same,Efficacy,[9],no
same,Efficacy,[10],no
same,Efficacy,[11],no
same,Efficacy,[12],no
same,Efficacy,[13],no
same,Efficacy,[14],no
same,Efficacy,[15],no
same,Efficacy,[16],no
same,Efficacy,[17],no
same,Efficacy,[18],no
same,Efficacy,[19],no
same,Efficacy,[20],no
same,Efficacy,[21],no
same,Efficacy,[22],no
same,Efficacy,[23],no
same,Efficacy,[24],no
same,Efficacy,[25],no
same,Efficacy,[26],no
same,Efficacy,[27],no
same,Efficacy,[28],no
same,Efficacy,[29],no
same,Efficacy,[30],no
same,Efficacy,[31],no
same,Efficacy,[32],no
same,Efficacy,[33],no
same,Efficacy,[34],no
same,Efficacy,[35],no
same,Efficacy,[36],yes
same,Efficacy,[37],yes
same,Efficacy,[38],"yes, not VRE"
same,Efficacy,[39],yes
same,Efficacy,[40],yes
same,Efficacy,[41],yes
same,Efficacy,[42],yes
same,Efficacy,[43],yes
